From ChEMBL document CHEMBL1145387, “Carbonic anhydrase activators: activation of the human isoforms VII (cytosolic) and XIV (transmembrane) with amino acids and amines” (Bioorg Med Chem Lett, 2007)

Experiments:
[1] = target: Carbonic anhydrase 7 (Homo sapiens) (UniProt P43166); assay: Activation of human recombinant CA7 by CO2 hydrase assay
[2] = target: Carbonic anhydrase 1 (Homo sapiens) (UniProt P00915); assay: Activation of human recombinant CA1 by CO2 hydrase assay
[3] = target: Carbonic anhydrase 14 (Homo sapiens) (UniProt Q9ULX7); assay: Activation of human recombinant CA14 by CO2 hydrase assay
Carbonic anhydrase 14 (Homo sapiens), sequence (Q9ULX7 whole entry): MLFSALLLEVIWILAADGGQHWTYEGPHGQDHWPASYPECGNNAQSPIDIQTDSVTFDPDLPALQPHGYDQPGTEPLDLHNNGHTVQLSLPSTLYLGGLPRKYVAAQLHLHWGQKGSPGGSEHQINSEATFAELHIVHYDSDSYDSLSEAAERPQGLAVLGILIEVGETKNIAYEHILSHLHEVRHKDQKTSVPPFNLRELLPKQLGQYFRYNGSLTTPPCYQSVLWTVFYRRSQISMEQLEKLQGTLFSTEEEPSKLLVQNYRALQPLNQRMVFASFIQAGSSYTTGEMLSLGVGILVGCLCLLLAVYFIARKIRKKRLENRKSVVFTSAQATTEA

[4] = target: Carbonic anhydrase 2 (Homo sapiens) (UniProt P00918); assay: Activation of human recombinant CA2 by CO2 hydrase assay

Carbonic anhydrase 1 (Homo sapiens), sequence (P00915 2-261 limits assumed): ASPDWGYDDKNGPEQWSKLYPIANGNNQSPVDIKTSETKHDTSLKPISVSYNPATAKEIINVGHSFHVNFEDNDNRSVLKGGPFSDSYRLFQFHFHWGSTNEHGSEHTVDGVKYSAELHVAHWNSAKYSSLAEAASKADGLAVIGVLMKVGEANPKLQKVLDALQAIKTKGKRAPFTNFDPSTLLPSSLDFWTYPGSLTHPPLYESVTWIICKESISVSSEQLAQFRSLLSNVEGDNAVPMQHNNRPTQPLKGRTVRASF
Carbonic anhydrase 7 (Homo sapiens), sequence (P43166 whole entry): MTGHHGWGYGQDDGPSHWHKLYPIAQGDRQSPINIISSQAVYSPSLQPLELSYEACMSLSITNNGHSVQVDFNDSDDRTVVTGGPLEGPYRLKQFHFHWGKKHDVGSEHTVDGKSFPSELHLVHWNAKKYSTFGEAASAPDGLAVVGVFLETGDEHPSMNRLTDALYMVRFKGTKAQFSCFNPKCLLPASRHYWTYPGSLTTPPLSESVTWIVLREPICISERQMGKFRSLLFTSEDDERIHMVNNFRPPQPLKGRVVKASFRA

CNC[C@@H](O)c1ccc(O)c(O)c1
KA [1]: 60 µM
KA [2]: 0.09 µM
KA [3]: 36.1 µM
KA [4]: 96 µM

NCCN1CCOCC1
KA [1]: 64.3 µM
KA [3]: 5.4 µM

N[C@@H](Cc1ccc(O)cc1)C(=O)O
KA [1]: 20.3 µM
KA [2]: 0.02 µM
KA [3]: 21.8 µM
KA [4]: 0.011 µM

NCCN1CCNCC1
KA [1]: 32.5 µM
KA [3]: 18.3 µM

N[C@H](Cc1c[nH]cn1)C(=O)O
KA [1]: 0.71 µM
KA [3]: 2.37 µM

N[C@@H](Cc1ccc(O)c(O)c1)C(=O)O
KA [1]: 58.3 µM
KA [3]: 12.1 µM

NCCc1c[nH]cn1
KA [1]: 37.5 µM
KA [3]: 0.01 µM

NCCc1ccccn1
KA [1]: 27.8 µM
KA [3]: 6.9 µM

N[C@@H](Cc1c[nH]cn1)C(=O)O
KA [1]: 0.92 µM
KA [3]: 0.9 µM

N[C@H](Cc1c[nH]c2ccccc12)C(=O)O
KA [1]: 39.6 µM
KA [3]: 18 µM

NCCc1ccc(O)c(O)c1
KA [1]: 0.89 µM
KA [3]: 14.6 µM

NCCc1c[nH]c2ccc(O)cc12
KA [1]: 0.93 µM
KA [3]: 6.5 µM

N[C@H](Cc1ccc(O)c(O)c1)C(=O)O
KA [1]: 58.3 µM
KA [3]: 36.8 µM

NCc1ccccn1
KA [1]: 43.7 µM
KA [3]: 21.7 µM

Nc1ccc(C[C@H](N)C(=O)O)cc1
KA [1]: 39.6 µM
KA [2]: 0.24 µM
KA [3]: 18 µM
KA [4]: 0.15 µM

N[C@@H](Cc1c[nH]c2ccccc12)C(=O)O
KA [1]: 57.5 µM
KA [3]: 16.5 µM
